# Results from article PMC4138103 (PLoS ONE, 2014).
# How the values were obtained:
# [1] = rats; cited from earlier work
# [2] = Margin of exposure calculations; design: species or system human; conditions: for MoE, Liver p53 / MoE, Spontanous locomotor activity: females; for MoE, Liver retinol / MoE, Serum chlolesterol / MoE, Serum thyroxine / MoE, Serum triglycerids: males
# Text: They include values from the WHO mother's milk survey in 2001–2002 [1], [2], adipose tissue from the Finnish general population in 1997–1999 [83] and, plasma from the Baltic Sea fisherman cohort in 1997–1999 [41] and placenta from a Danish–Finnish joint prospective cohort in 1997–2001 [40]. WHO has established uncertainty factors (UF) for estimating tolerable intake levels of environmental chemicals. As rat and human tissue concentration data are used no interspecies toxicokinetic UF is needed. A toxicodynamic factor of 2.5 is applied to cover the interspecies variability and a factor of 10 to cover the inter-individual variability in humans. Thus, the UF of 25 is considered adequate for human health endpoints of NDL-PCBs.
# [3] = Worst case: the most exposed fisherman
# [4] = human cohort Baltic Sea fishermen
# [5] = human cohort General population (Finland)
# [6] = human cohort Placenta (Denmark)
# [7] = human cohort Placenta (Finland)
compound,measurement,setting,value
"Clc1cc(Cl)c(-c2cc(Cl)c(Cl)c(Cl)c2Cl)cc1Cl [PCB 180, 2,2′,3′,4,4′,5,5′-heptachlorobiphenyl]",Elimination half-life,[1],90 days
same,"MoE, Liver p53",[2]; [3],25
same,"MoE, Spontanous locomotor activity",[2]; [3],0.438
same,"MoE, Liver p53",[2]; [4],65.2
same,"MoE, Spontanous locomotor activity",[2]; [4],1.14
same,"MoE, Liver p53",[2]; [5],316
same,"MoE, Spontanous locomotor activity",[2]; [5],5.53
same,"MoE, Liver p53",[2]; human cohort Mother's milk,655
same,"MoE, Spontanous locomotor activity",[2]; human cohort Mother's milk,11.5
same,"MoE, Liver p53",[2]; [6],3109
same,"MoE, Spontanous locomotor activity",[2]; [6],54.4
same,"MoE, Liver p53",[2]; [7],5396
same,"MoE, Spontanous locomotor activity",[2]; [7],94.4
same,"MoE, Liver retinol",[2]; [3],15.7
same,"MoE, Serum chlolesterol",[2]; [3],76.2
same,"MoE, Serum thyroxine",[2]; [3],97.5
same,"MoE, Serum triglycerids",[2]; [3],6.05
same,"MoE, Liver retinol",[2]; [4],40.9
same,"MoE, Serum chlolesterol",[2]; [4],199
same,"MoE, Serum thyroxine",[2]; [4],254
same,"MoE, Serum triglycerids",[2]; [4],15.8
same,"MoE, Liver retinol",[2]; [5],198
same,"MoE, Serum chlolesterol",[2]; [5],963
same,"MoE, Serum thyroxine",[2]; [5],1233
same,"MoE, Serum triglycerids",[2]; [5],76.5
same,"MoE, Liver retinol",[2]; human cohort Mother's milk,410
same,"MoE, Serum chlolesterol",[2]; human cohort Mother's milk,1996
same,"MoE, Serum thyroxine",[2]; human cohort Mother's milk,2555
same,"MoE, Serum triglycerids",[2]; human cohort Mother's milk,159
same,"MoE, Liver retinol",[2]; [6],1948
same,"MoE, Serum chlolesterol",[2]; [6],9472
same,"MoE, Serum thyroxine",[2]; [6],12124
same,"MoE, Serum triglycerids",[2]; [6],752
same,"MoE, Liver retinol",[2]; [7],3381
same,"MoE, Serum chlolesterol",[2]; [7],16439
same,"MoE, Serum thyroxine",[2]; [7],21043
same,"MoE, Serum triglycerids",[2]; [7],1306
